According to patent US20130123360A1, “METHODS AND USES RELATING TO THE IDENTIFICATION OF COMPOUND ASSOCIATED WITH BACTERIAL INFECTION” (SANOFI-AVENTIS DEUTSCHLAND GMBH, priority 2010, published 2013):
Several values for one entry are separate records, joined by “and”; a condition that tells them apart may be missing. Equal entries are not always repeated. Where two headings read alike, the source gives them in different places.

Assays:
PqsD protein [1] = target: T1, PqsD protein (Pseudomonas aeruginosa, UniProt P20582); experiment: Determination of kinetic parameters of PqsD (HHQ formation, HPLC-MS2); format: biochemical, Pseudomonas aeruginosa UCBPP-PA14
T1 construct: The 1-kb NdeI-EcoRI fragment of pqsD was cloned between the NdeI and EcoRI sites of pET28b(+), resulting in pET28b(+)-pqsD; fused on or other part: N-terminal His tag from pET28b(+)
T1 sequence (P20582 1-337): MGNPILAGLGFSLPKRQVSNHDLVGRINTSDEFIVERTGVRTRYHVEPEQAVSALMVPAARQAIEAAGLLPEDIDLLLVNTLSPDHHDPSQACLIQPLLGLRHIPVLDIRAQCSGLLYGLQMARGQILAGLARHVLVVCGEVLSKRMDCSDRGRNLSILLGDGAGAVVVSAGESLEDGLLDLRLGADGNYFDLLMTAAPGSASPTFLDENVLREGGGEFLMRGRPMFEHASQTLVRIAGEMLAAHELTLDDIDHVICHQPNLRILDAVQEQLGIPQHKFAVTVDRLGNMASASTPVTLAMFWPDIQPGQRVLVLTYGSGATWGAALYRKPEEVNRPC
Experimental: Experimental protocol. […] The carbon-carbon bond formation between carbons 3 and 4 of the quinoline ring is likely to be catalyzed by one of the proteins PqsB, PqsC or PqsD which show all homology to the β-ketoacyl-acyl carrier protein synthase III family. To test of whether PqsD is necessary for HHQ formation, we purified recombinant PqsD protein and tried to readjust HHQ formation in vitro. The heterologous protein was incubated with anthraniloyl-CoA and 3-oxodecanoic acid and the reaction was analyzed by HPLC-MS.
HHQ quantification by HPLC-MS^2—HPLC-MS analysis was carried out using a HPLC system from the Agilent 1100 series coupled to a Brucker Daltonics HCTultra ESI-MS iontrap instrument operated in positive ionization mode. For separation a Onyx Monolythic C18 column (50×2 mm, Phenomenex) was used. […] For HHQ quantification the signal intensities of fragment ion 159.0 Da created by fragmentation of 244.0 Da were used. For creation of the standard curve HHQ standards containing 1, 5, 10, 20, 50, 100 and 200 ng ml^−1 were measured.
The reaction mixtures contained 50 mM Tris-HCl, pH 8.0, PqsD protein (1 μg), 0.2 mM anthraniloyl-CoA and 3-oxodecanoic acid ranging in concentration from 0.02 to 2 mM in a total volume of 50 μl. […] HHQ was quantified by HPLC by injecting 10 μl of the reaction mixture. […]

PqsD protein [2] = target: T1, PqsD protein; experiment: Inhibition of HHQ formation by PqsD in vitro (HPLC-MS2 quantification of HHQ); format: biochemical, Pseudomonas aeruginosa UCBPP-PA14; conditions: 0.2 mM anthraniloyl-CoA, 0.35 mM 3-oxodecanoic acid, 1 μg PqsD, 2 min preincubation, 2 min at 37° C., pH 8.0
Experimental: Experimental protocol. With the PqsD assay established so far, it is possible to screen for possible inhibitors of HHQ formation by PqsD in vitro. For this purpose the concentrations of anthraniloyl-CoA, 3-oxodecanoic acid and PqsD protein are assigned to fixed values. At first PqsD, anthraniloyl-CoA and the compound to be tested are preincubated for a fixed period. The putative inhibitor is added to the assay in increasing concentrations. The reaction is started by the addition of 3-oxodecanoic acid and incubated for a fixed period. Then the reaction is quenched by the addition of methanol to a final concentration of 50 percent. For each reaction the HHQ formation is quantified by HPLC/MS^2. By comparing the amounts of HHQ formed in presence of the different concentrations of the inhibitor to that of a control reaction without inhibitor, it can be calculated for the inhibitor concentration at which HHQ formation is 50 percent of the control reaction (IC50). […]
HHQ quantification by HPLC-MS^2—HPLC-MS analysis was carried out using a HPLC system from the Agilent 1100 series coupled to a Brucker Daltonics HCTultra ESI-MS iontrap instrument operated in positive ionization mode. […] For HHQ quantification the signal intensities of fragment ion 159.0 Da created by fragmentation of 244.0 Da were used. […]

SMILES | Km (PqsD protein [1]; fixed anthraniloyl-CoA 200 μM, varied 3-oxodecanoic acid 0.02 to 2 mM, 37° C., pH 8.0, triplicates, read-out: Km value of PqsD for 3-oxodecanoic acid) [µM] | Km (PqsD protein [1]; fixed anthraniloyl-CoA, varied 3-oxodecanoic acid concentrations, FIG. 4, read-out: Km value of PqsD (figure legend)) [µM] | IC50 (PqsD protein [2])
CCCCCCCC(=O)CC(=O)O [3-oxodecanoic acid] | 562 ± 91 | 560 | –
O=C(Nc1ccccc1C(=O)O)c1ccc(-c2ccccc2)c(Oc2ccccc2)c1 [2-[(2-phenoxybiphenyl-4-carbonyl)amino]benzoic acid] | – | – | 35 µM and ~35 µM
